What is called IC50 is the concentration that gives 50% inhibition.

Data on 6 molecules can be found in patent US20210246115A1 (Bioimics AB, priority 2017, published 2021).

Converted amounts (≈) assume the structure as drawn. Where a name gives a salt, the structure may show the parent alone. Read-outs that look alike come from different tables or passages of the source.

For one assay, the system named is K. pneumoniae ATCC 43816. The experiment in a line: MIC, K. pneumoniae ATCC 43816. In kind it is cell-based. Particulars: Klebsiella pneumoniae, ATCC43816; Table XIV B. Gram-negative bacteria.
Assay [1] relates to Staphylococcus aureus subsp. aureus (ATCC29213). The experiment in a line: MIC, broth microdilution (CLSI), Staphylococcus aureus ATCC29213. Particulars: Staphylococcus aureus, read-out: S. aureus ATCC 29213 MIC. The format is cell-based.
For assay [2], the system named is S. aureus MRSA ATCC 33591. The experiment in a line: MIC, S. aureus MRSA ATCC 33591. The format is cell-based. Particulars: Staphylococcus aureus; Table XIV A. Gram-positive bacteria; read-out: S. aureus MRSA ATCC 33591 MIC.
Another assay deals with H. influenzae ATCC 49247. The experiment in a line: MIC, H. influenzae ATCC 49247. The format is cell-based. Particulars: Haemophilus influenzae, ATCC49247; Table XIV B. Gram-negative bacteria.
The test system of the next assay is M. phlei ATCC 11758. The experiment in a line: MIC, M. phlei ATCC 11758. Particulars: Mycolicibacterium phlei, ATCC11758; Table XIV A. Gram-positive bacteria. In kind it is cell-based.
In assay [3] the test system is Pseudomonas aeruginosa (ATCC27853). The experiment in a line: MIC, broth microdilution (CLSI), Pseudomonas aeruginosa. In kind it is cell-based. Particulars: ATCC27853, Table XIV B. Gram-negative bacteria, read-out: P. aeruginosa ATCC 27853 MIC. A general note: Dilution methods test growth across graded concentrations, often in twofold steps.
The subject of assay [4] is P. aeruginosa NTUH974 (MDR). The experiment in a line: MIC, P. aeruginosa NTUH974 (MDR). The format is cell-based. Particulars: Pseudomonas aeruginosa; Table XIV B. Gram-negative bacteria; read-out: P. aeruginosa NTUH974 (MDR) MIC.
Assay [5] concerns E. coli JW5503 (efflux defective). The experiment in a line: MIC, E. coli JW5503 (efflux defective). Particulars: Escherichia coli, read-out: E. coli JW5503 (efflux defective) MIC. In kind it is cell-based.
Assay [6] has as its system S. aureus USA300 MRSA BAA-1717. The experiment in a line: MIC, S. aureus USA300 MRSA BAA-1717. In kind it is cell-based. Particulars: Staphylococcus aureus; Table XIV A. Gram-positive bacteria; read-out: S. aureus USA300 MRSA BAA-1717 MIC.
A further assay concerns E. faecium ATCC 700221. The experiment in a line: MIC, E. faecium ATCC 700221. The format is cell-based. Particulars: Enterococcus faecium, ATCC700221; Table XIV A. Gram-positive bacteria; read-out: E. faecium ATCC 700221 MIC.
The next assay has as its system S. pneumoniae ATCC 49619. The experiment in a line: MIC, S. pneumoniae ATCC 49619. Particulars: Streptococcus pneumoniae, ATCC49619; Table XIV A. Gram-positive bacteria. In kind it is cell-based.
Assay [7] deals with Enterococcus faecalis (ATCC29212). The experiment in a line: MIC, broth microdilution (CLSI), Enterococcus faecalis. In kind it is cell-based. Particulars: ATCC29212, Table XIV A. Gram-positive bacteria, read-out: E. faecalis ATCC 29212 MIC.
In another assay the test system is M. fortuitum ATCC 110. The experiment in a line: MIC, M. fortuitum ATCC 110. Particulars: Mycolicibacterium fortuitum, ATCC110; Table XIV A. Gram-positive bacteria. The format is cell-based.
The subject of another assay is A. baumannii ATCC 17978. The experiment in a line: MIC, A. baumannii ATCC 17978. In kind it is cell-based. Particulars: Acinetobacter baumannii, ATCC17978; Table XIV B. Gram-negative bacteria.
For assay [8], the system named is E. coli RNase P RNA, M1 RNA. The experiment in a line: Inhibition of bacterial RNase P activity, IC50 determination (cleavage of pATSerUG by M1 RNA). In kind it is biochemical. Particulars: NI: No inhibition.
Assay [9] relates to N. gonorrhoeae ATCC 700825. The experiment in a line: MIC, N. gonorrhoeae ATCC 700825. The format is cell-based. Particulars: Neisseria gonorrhoeae, ATCC700825; Table XIV B. Gram-negative bacteria.
A further assay deals with H. pylori ATCC 43504. The experiment in a line: MIC, H. pylori ATCC 43504. In kind it is cell-based. Particulars: Helicobacter pylori, ATCC43504; Table XIV B. Gram-negative bacteria.
Assay [10] has as its system Escherichia coli (ATCC25922). The experiment in a line: MIC, broth microdilution (CLSI), Escherichia coli. Particulars: for MIC: Escherichia coli.
Experimental: (§1) Initial minimal inhibitory concentration (MIC) tests were made on two bacterial strains: • Escherichia coli (ATCC25922) • Staphylococcus aureus (ATCC25923).
(§2) MIC values were determined using the standard broth microdilution procedure based on the guidelines by the Clinical and Laboratory Standards Institute (CLSI). Briefly, the compounds were dissolved in DMSO to 10 mM. They were diluted in cation-adjusted Mueller-Hinton broth (CAMHB) to four times the highest concentration tested. A serial two-fold dilution in CAMHB was done in microdilution plates. The inoculum of bacterial strain to be tested was prepared by making a suspension of colonies from an 18 to 24 hours old plate in CAMHB. The inoculum was diluted so that, after inoculation, each well contained approximately 5×10^5 CFU/mL. To a volume of 50 μl compound in CA 3 an equal volume of inoculum was added. The tray was sealed in a plastic bag and incubated at 35° C. for 16 to 20 hours. To aid in the detection of growth the dye resazurin was added to a final concentration 0.001% and incubated at room temperature for 1 h. Reduction of resazurin, and therefore bacterial growth, was seen as a change from blue to pink.
Assay [11] deals with Staphylococcus aureus (ATCC25923). The experiment in a line: MIC, broth microdilution (CLSI), Staphylococcus aureus ATCC25923. Particulars: for MIC: Staphylococcus aureus, ATCC25923, read-out: S. aureus ATCC 25923 MIC.
Experimental: as §1, §2
The mark [12] stands for this setting: ATCC29213, Table XIV A. Gram-positive bacteria.
The mark [13] stands for this setting: ATCC25922, read-out: E. coli ATCC 25922 MIC, Table XIII.
Where [14] appears, read: ATCC25922, read-out: E. coli ATCC 25922 MIC, Table XIV B. Gram-negative bacteria.

Take `NCCCNCCC(c1cccc(OC(F)(F)F)c1)c1cn(C2CCCCC2)c2ccccc12` (stereo not drawn) [Compound 348, N1-(3-(1-cyclohexyl-1H-indol-3-yl)-3-(3-(trifluoromethoxy)phenyl)propyl)propane-1,3-diaminesalt]: the MIC in the assay on K. pneumoniae ATCC 43816 was determined as 2 µg/mL; in [1] (ATCC29213, Table XIII) it was 4 µg/mL; in [1] (setting [12]), 4 µg/mL; in [2] it was 4 µg/mL; in the assay on H. influenzae ATCC 49247, 4 µg/mL; with M. phlei ATCC 11758 it was 4 µg/mL. The MIC worked out at 8 µg/mL in assay [3]; 8 µg/mL in [4]; 2 µg/mL in assay [5]; 4 µg/mL in assay [6]; 2 µg/mL in the assay on E. faecium ATCC 700221; 8 µg/mL against S. pneumoniae ATCC 49619. For the same molecule, the MIC turned out to be 2 µg/mL in assay [7]; 4 µg/mL in the assay on M. fortuitum ATCC 110; 4 µg/mL against A. baumannii ATCC 17978; 2 µg/mL in assay [9]; 16 µg/mL against H. pylori ATCC 43504; 4 µg/mL in [10] (setting [13]). In assay [10] (setting [14]), the MIC amounted to 2 µg/mL. In [8], this molecule yielded an IC50 of 4.5 µM.
As to `Cc1cccc(-c2ccc3c(c2)c(CCCNCC(O)CN)cn3C2CCCCC2)c1` (stereo not drawn) [Compound 385, 1-amino-3-((3-(1-cyclohexyl-5-(m-tolyl)-1H-indol-3-yl)propyl)amino) propan-2-ol], the MIC with K. pneumoniae ATCC 43816 was 4 µg/mL (≈ 9.53 µM); in [1] (ATCC29213, Table XIII), 4 µg/mL (≈ 9.53 µM); in assay [1] (setting [12]), 2 µg/mL (≈ 4.77 µM); in assay [2] it was 2 µg/mL (≈ 4.77 µM); in the assay on H. influenzae ATCC 49247, 2 µg/mL (≈ 4.77 µM); against M. phlei ATCC 11758, 4 µg/mL (≈ 9.53 µM). Besides, the MIC in [3] stood at 4 µg/mL (≈ 9.53 µM); in [4], 4 µg/mL (≈ 9.53 µM); in [5], 2 µg/mL (≈ 4.77 µM); in assay [6], 2 µg/mL (≈ 4.77 µM); in the assay with E. faecium ATCC 700221, 2 µg/mL (≈ 4.77 µM); against S. pneumoniae ATCC 49619, 8 µg/mL (≈ 19.1 µM). Also, the MIC is 2 µg/mL (≈ 4.77 µM) in [7]; 2 µg/mL (≈ 4.77 µM) in the assay with M. fortuitum ATCC 110; 4 µg/mL (≈ 9.53 µM) in the assay with A. baumannii ATCC 17978; 2 µg/mL (≈ 4.77 µM) in [9]; 8 µg/mL (≈ 19.1 µM) against H. pylori ATCC 43504; 4 µg/mL (≈ 9.53 µM) in [10] (setting [13]). In addition, the MIC in assay [10] (setting [14]) worked out at 4 µg/mL (≈ 9.53 µM). In assay [8], this molecule registered an IC50 of 13 µM.
Turning to `Cc1cccc(C(CCN[C@H]2CC[C@H](N)CC2)c2cn(CC3CCCCC3)c3ccccc23)c1` (stereo partly drawn) [Compound 199, (1R,4R)-N1-(3-(1-(cyclohexylmethyl)-1H-indol-3-yl)-3-(m-tolyl)propyl) cyclohexane-1,4-diamine hydrochloride], the MIC against K. pneumoniae ATCC 43816 was 16 µg/mL; in assay [1] (ATCC29213, Table XIII), 4 µg/mL; in [1] (setting [12]), 8 µg/mL; in assay [2], 8 µg/mL; against H. influenzae ATCC 49247, 8 µg/mL; against M. phlei ATCC 11758, 2 µg/mL. Besides, the MIC was determined as 32 µg/mL in [3]; 64 µg/mL in assay [4]; 4 µg/mL in [5]; 4 µg/mL in assay [6]; 4 µg/mL in the assay on E. faecium ATCC 700221; 16 µg/mL in the assay with S. pneumoniae ATCC 49619. The MIC in assay [7] was 8 µg/mL; in [11], 2 µg/mL; against M. fortuitum ATCC 110 it was 2 µg/mL; against A. baumannii ATCC 17978, 8 µg/mL; in [9] it was 4 µg/mL; in assay [10] (setting [13]) it was 4 µg/mL. Besides, the MIC in assay [10] (setting [14]) came to 32 µg/mL. The molecule also returned an IC50 in assay [8] of 9.8 µM.
`Cc1cccc(C(CCNC2CCC(N)CC2)c2cn(CC3CCCCCC3)c3ccccc23)c1` [Compound 245, (1S,4S)-N1-(3-(1-(cycloheptylmethyl)-1H-indol-3-yl)-3-(m-tolyl)propyl)cyclohexane-1,4-diamine hydrochloride salt]: the MIC against K. pneumoniae ATCC 43816 turned out to be 8 µg/mL; in assay [1] (ATCC29213, Table XIII), 4 µg/mL; in assay [1] (setting [12]), 4 µg/mL; in assay [2], 4 µg/mL; against H. influenzae ATCC 49247, 8 µg/mL; in the assay with M. phlei ATCC 11758 it was 2 µg/mL. For the same molecule, the MIC in assay [3] came to 16 µg/mL; in assay [4], 16 µg/mL; in assay [5], 4 µg/mL; in assay [6], 2 µg/mL; with E. faecium ATCC 700221, 2 µg/mL; in the assay on S. pneumoniae ATCC 49619, 8 µg/mL. In addition, the MIC was 4 µg/mL in [7]; 1 µg/mL in assay [11]; 2 µg/mL in the assay on M. fortuitum ATCC 110; 4 µg/mL in the assay with A. baumannii ATCC 17978; 2 µg/mL in assay [9]; 4 µg/mL in assay [10] (setting [13]). Moreover, the MIC in [10] (setting [14]) was found to be 4 µg/mL. This molecule showed an IC50 in assay [8] of 13 µM.
For the molecule `NC1CCC(NCCC(c2cccc(OC(F)(F)F)c2)c2cn(CC3CCCCC3)c3ccccc23)CC1` [Compound 173, (1S,4S)-N1-(3-(1-(cyclohexylmethyl)-1H-indol-3-yl)-3-(3-(trifluoromethoxy)phenyl)propyl)cyclohexane-1,4-diamine hydrochloride salt], the MIC turned out to be 4 µg/mL in the assay on K. pneumoniae ATCC 43816; 2 µg/mL in assay [1] (ATCC29213, Table XIII); 2 µg/mL in [1] (setting [12]); 2 µg/mL in [2]; 4 µg/mL in the assay with H. influenzae ATCC 49247; 1 µg/mL against M. phlei ATCC 11758. The MIC in [3] worked out at 16 µg/mL; in assay [4], 16 µg/mL; in [5], 4 µg/mL; in assay [6] it was 2 µg/mL; in the assay on E. faecium ATCC 700221 it was 2 µg/mL; with S. pneumoniae ATCC 49619, 8 µg/mL. For the same molecule, the MIC in [7] worked out at 2 µg/mL; in [11], 2 µg/mL; in the assay with M. fortuitum ATCC 110, 2 µg/mL; against A. baumannii ATCC 17978 it was 4 µg/mL; in [9], 2 µg/mL; in assay [10] (setting [13]) it was 4 µg/mL. The MIC in assay [10] (setting [14]) worked out at 4 µg/mL. The same molecule had an IC50 in assay [8] of 3 µM.
For `N[C@H]1CC[C@H](NC2CCC(c3cn(CC4CCCCC4)c4ccc(Br)cc34)CC2)CC1` (single isomer, unassigned) [Compound 266, (1r,4r)-N1-(4-(5-bromo-1-(cyclohexylmethyl)-1H-indol-3-yl)cyclohexyl)cyclohexane-1,4-diamine hydrochloride salt], the MIC is 4 µg/mL against K. pneumoniae ATCC 43816; 2 µg/mL in assay [1] (ATCC29213, Table XIII); 4 µg/mL in assay [1] (setting [12]); 2 µg/mL in [2]; 4 µg/mL against H. influenzae ATCC 49247; 2 µg/mL against M. phlei ATCC 11758. Further, the MIC in assay [3] was found to be 8 µg/mL; in [4] it was 16 µg/mL; in assay [5], 4 µg/mL; in assay [6], 2 µg/mL; in the assay with E. faecium ATCC 700221, 2 µg/mL; in the assay with S. pneumoniae ATCC 49619, 8 µg/mL. Also, the MIC in assay [7] worked out at 2 µg/mL; against M. fortuitum ATCC 110 it was 2 µg/mL; against A. baumannii ATCC 17978 it was 8 µg/mL; in assay [9], 2 µg/mL; in assay [10] (setting [14]), 4 µg/mL. In assay [11] (Table XIII), the “S. aureus ATCC 25923 MIC” value was 2 µg/mL. In addition, the concentration for half-maximal inhibition (IC50) in assay [8] (hydrochloride salt) is 8.5 µM. Moreover, in [10] (Table XIII), the “E. coli ATCC 25922 MIC” value was 2 µg/mL.
